From patent US6969590B2, “Use of a polypeptide for treatment of pruritus in animals” (Zengen, Inc., priority 2001, dated 2005)
“Also recorded” adds a separate entry of the source.

Legend:
[1] = test system: edema caused by intradermal injection of human recombinant IL-1β in the mouse ear; experiment: Ear edema by intradermal recombinant human IL-1β; format: in vivo, BALB/c mice; details: centrally administered peptide, propranolol injected centrally
Method: Female BALB/c mice (Simonsen Laboratories, Gilroy, Calif.), 7-8 weeks old, were housed at 23-25° C. in groups not exceeding five animals per cage [28 cm (L)×18 cm (W)×13 cm (H)]. Before the experiments they were acclimatized for not less than 1 week before experimentation to standard lighting and temperature conditions with food and water freely available.
Mice were anesthetized with 10% pentobarbital sodium solution (1 mg/mouse, 50 mg/ml, Nembutal sodium solution; Abbott Laboratories, North Chicago, Ill.). Baseline ear thickness measurements were taken with a spring-loaded micrometer (Swiss Precision Instruments, Los Angeles, Calif.). Ear thickness was expressed in cubic centimeters and was measured at least twice at each time point. The average thickness of unstimulated ears was […]. Inflammation was induced by intradermal injection of 20 μl of recombinant human IL-1β (1500 U; Genzyme, Cambridge, Mass.) in one ear of each mouse using a 28 gauge needle (Hiltz et al., 1992). Measures of ear thickness were repeated 4 and 6 hr later, while the mice were under sodium pentobarbital anesthesia. Edema was assessed by subtracting baseline measures from 4 and 6 hr readings for each animal. α-MSH (11-13) (1663.9 gm/mol; Peninsula Laboratories, Belmont, Calif.) or α-MSH (11-13) (383.48 gm/mol; Peninsula Laboratories) dissolved in saline was injected intracerebroventricularly (20 μl) using procedures described previously (Lipton et al., 1991; Lipton and Catania, 1993).
Several agents were administered at the time of ear challenge to pharmacologically block certain receptors: atropine (Sigma Chemical Co.; 150 μg i.p.), a muscarinic receptor blocker that acts on autonomic end-organ receptors, was chosen because of links between inflammation and modulation of pain and the finding that muscarinic antagonists increase pain threshold (Hartvig et al., 1989); phentolamine (Sigma; 150 μg i.p.) an agent that competes for occupancy of α-adrenergic receptors; propranolol (Sigma; 150 μg, i.p.; 30 μg, i.c.v.), a nonspecific competitive antagonist for β-adrenergic receptors.
(§1) Because of the size of the experiments and the requirement for several shipments of animals over time, several experiments were performed, each with complete treatment and control groups drawn from the same shipment of mice. Omnibus analysis of variance techniques (Dynastat, Washington, D.C.) were used to test overall differences among group means. Tukey's protected t test was used to compare individual means. Probability values of <0.05 were considered significant.

[2] = test system: inflammation induced in the hind paw; experiment: Kappa carrageenan-induced hind paw inflammation, spinal cord intact or transected; format: in vivo, BALB/c mice; details: for inhibition of hind paw inflammation: central administration, spinal cord intact mice
Method: Because surgical dissection of trigeminal structures that innervate the ear of the mouse is very difficult, tests to learn whether descending neural pathways are essential to the anti-inflammatory activity of centrally administered α-MSH peptides were performed in mice with inflammation induced in a hind paw. In these experiments, each animal was anesthetized with pentobarbital sodium solution as above. Baseline footpad thickness of both hind paws was measured with a spring-loaded micrometer (Swiss Precision Instruments, Los Angeles, Calif.). Paw thickness was expressed in units of 10^−3 cm; average thickness of unstimulated paws was 171.5×10^−3 cm across shipments of animals. Kappa carrageenan (Sigma) dissolved in saline (0.05%, 20 μl) was injected (28 gauge allergy test syringe) into one footpad, and saline (20 μl) was injected into the other. For the analyses, the increase in thickness of the control saline-injected paw of each animal was subtracted from that of the carrageenan-injected paw, to eliminate the influence of mechanical injury and volume of the injected fluid. To be certain that mice with severed spinal cords can react to anti-inflammatory agents, prednisolone (2.5 mg/mouse (IP injection)) was administered to 10 mice with spinal transection and inflammation induced by carrageenan. Treatment with the locally acting steroid reduced swelling up to 29% (average, relative to saline controls) at 4.5 h. after carrageenan.
However, a standardized crushing of lumbar vertebrae with a hemostat was effective in severing the cord; no deaths were caused by this treatment. […] The experiments were limited to 4.5 h to reduce problems of bowel and bladder dysfunction. Immediately after the 4.5 h measurements all mice were killed with an overdose of sodium pentobarbital.
as §1

C. albicans = C. albicans colony forming units (candidacidal activity); format: cell-based
Method: C. albicans (1×10^6/ml in HBSS) was incubated in the presence or absence or α-MSH (1-13) or α-MSH (11-13) at concentrations in the range of 10^−15 M to 10^−6 M for 2 hours at 37° C. Cells were then washed in cold distilled water and diluted with HBSS to a concentration of 100 organisms/ml. One-ml aliquots were dispensed on blood agar plates and incubated for 48 hours at 37° C. Organism viability was estimated from the number of colonies formed. In subsequent experiments using familiar procedures we compared activity of α-MSH (4-10), α-MSH (6-13), α-MSH (11-13), ACTH (1-39), (18-39) and fluconazole, the latter an established antifungal agent. Melanocortin peptides and fluconazole were tested in concentrations of 10^−6 M to 10^−4 M. There were at least six replicates for each concentration of peptide.

Sequence: SYSMEHFRWGKPV [α-MSH (1-13)]
- inhibition of ear edema ([1]; 4 hr): 36%
- inhibition of ear edema ([1]; 6 hr): 32%
- inhibition of hind paw inflammation ([2]; 3 h): 57%
- inhibition of hind paw inflammation ([2]; 4.5 h): 29%
- anti-inflammatory effect after spinal cord transection ([2]; centrally administered): significantly reduced the anti-inflammatory effect
- anti-inflammatory effect after spinal cord transection ([2]; given intraperitoneally): significant, although smaller, inhibitory effect later in the period
- relative potency in reducing C. albicans viability (C. albicans; 10^−4M melanocortin peptides): the most effective
- effect on C. albicans colony forming units (CFU) (C. albicans; 2 hours at 37° C., vs. control): greatly reduced; also recorded: significantly decreased C. albicans colony forming units; also recorded: inhibitory effect
